Reference: article PMC6923382, “Small molecules that inhibit TNF signalling by stabilising an asymmetric form of the trimer” (Nature Communications, 2019)
Like-named read-outs stand apart in the source and are kept apart here.

Assay: Blood exposure of UCB-9260 in the mouse models
Format: in vivo
Conditions: mouse, blood

SMILES: Cc1ccc(C)c(Cn2c(C(O)c3ccncc3)nc3ccc(-c4cnn(C)c4)cc32)c1 (stereo not shown) [UCB-9260]
- concentration at 0.5 h (Balb/c, oral, 10 mg/kg, mouse TNF neutrophilia model, individual mice, 0.5h post dose, read-out: Total exposure): 1220 nM
- concentration at 0.5 h (Balb/c, oral, 10 mg/kg, mouse TNF neutrophilia model, individual mice, read-out: Free exposure): 35.9 nM
- concentration at 0.5 h (Balb/c, oral, 30 mg/kg, 30 mg/kg p.o., mouse TNF neutrophilia model, Fu 2.4%, read-out: Blood concentration 0.5h post dose (free)): 225 ± 23 nM
- concentration at 0.5 h (Balb/c, oral, 30 mg/kg, 30 mg/kg p.o., mouse TNF neutrophilia model, mean n=3 ± s.e.m., read-out: Blood concentration 0.5h post dose total): 9360 nM
- concentration at 0.5 h (Balb/c, oral, 30 mg/kg, mouse TNF neutrophilia model, individual mice, 0.5h post dose, read-out: Total exposure): 9980 nM
- concentration at 0.5 h (Balb/c, oral, 30 mg/kg, mouse TNF neutrophilia model, individual mice, read-out: Free exposure): 254 nM
- concentration at 0.5 h (Balb/c, oral, 100 mg/kg, 100 mg/kg p.o., human TNF neutrophilia model, Fu 2.4%, read-out: Blood concentration 0.5h post dose (free)): 716 ± 93 nM
- concentration at 0.5 h (Balb/c, oral, 100 mg/kg, 100 mg/kg p.o., human TNF neutrophilia model, mean n=3 ± s.e.m., read-out: Blood concentration 0.5h post dose total): 29800 nM
- concentration at 0.5 h (Balb/c, oral, 100 mg/kg, 100 mg/kg p.o., mouse TNF neutrophilia model, Fu 2.4%, read-out: Blood concentration 0.5h post dose (free)): 1350 nM
- concentration at 0.5 h (Balb/c, oral, 100 mg/kg, 100 mg/kg p.o., mouse TNF neutrophilia model, mean ± s.e.m., read-out: Blood concentration 0.5h post dose total): 56100 nM
- concentration at 0.5 h (Balb/c, oral, 100 mg/kg, human TNF neutrophilia model, individual mice, 0.5h post dose, read-out: Total exposure): 29100 nM
- concentration at 0.5 h (Balb/c, oral, 100 mg/kg, human TNF neutrophilia model, individual mice, read-out: Free exposure): 886 nM
- concentration at 0.5 h (Balb/c, oral, 300 mg/kg, 300 mg/kg p.o., human TNF neutrophilia model, Fu 2.4%, read-out: Blood concentration 0.5h post dose (free)): 1190 nM
- concentration at 0.5 h (Balb/c, oral, 300 mg/kg, 300 mg/kg p.o., human TNF neutrophilia model, mean n=3 ± s.e.m., read-out: Blood concentration 0.5h post dose total): 49500 nM
- concentration at 0.5 h (Balb/c, oral, 300 mg/kg, 300 mg/kg p.o., mouse TNF neutrophilia model, Fu 2.4%, read-out: Blood concentration 0.5h post dose (free)): 1270 nM
- concentration at 0.5 h (Balb/c, oral, 300 mg/kg, 300 mg/kg p.o., mouse TNF neutrophilia model, mean n=3 ± s.e.m., read-out: Blood concentration 0.5h post dose total): 53000 nM
- concentration at 0.5 h (Balb/c, oral, 300 mg/kg, human TNF neutrophilia model, individual mice, 0.5h post dose, read-out: Total exposure): 41500 nM
- concentration at 0.5 h (Balb/c, oral, 300 mg/kg, human TNF neutrophilia model, individual mice, read-out: Free exposure): 1190 nM
- concentration at 0.5 h (Balb/c, oral, 300 mg/kg, mouse TNF neutrophilia model, individual mice, 0.5h post dose, read-out: Total exposure): 63000 nM
- concentration at 0.5 h (Balb/c, oral, 300 mg/kg, mouse TNF neutrophilia model, individual mice, read-out: Free exposure): 1170 nM
- concentration at 1 h (male, Balb/c, oral, 10 mg/kg, 10 mg/kg p.o., zymosan model, Fu 2.4%, read-out: Blood concentration 1h post dose (free)): 2 ± 0.4 nM
- concentration at 1 h (male, Balb/c, oral, 10 mg/kg, 10 mg/kg p.o., zymosan model, mean n=8 ± s.e.m., read-out: Blood concentration 1h post dose (total)): 86 ± 15 nM
- concentration at 1 h (male, Balb/c, oral, 30 mg/kg, 30 mg/kg p.o., zymosan model, Fu 2.4%, read-out: Blood concentration 1h post dose (free)): 70 ± 7 nM
- concentration at 1 h (male, Balb/c, oral, 30 mg/kg, 30 mg/kg p.o., zymosan model, mean n=8 ± s.e.m., read-out: Blood concentration 1h post dose (total)): 2900 nM
- concentration at 1 h (male, Balb/c, oral, 30 mg/kg, zymosan model, individual mice, read-out: free exposure 1h post dose): 46.8 nM
- concentration at 1 h (male, Balb/c, oral, 30 mg/kg, zymosan model, individual mice, read-out: total exposure 1h post dose): 1950 nM
- concentration at 1 h (male, Balb/c, oral, 100 mg/kg, 100 mg/kg p.o., zymosan model, Fu 2.4%, read-out: Blood concentration 1h post dose (free)): 630 ± 98 nM
- concentration at 1 h (male, Balb/c, oral, 100 mg/kg, 100 mg/kg p.o., zymosan model, mean n=8 ± s.e.m., read-out: Blood concentration 1h post dose (total)): 26300 nM
- concentration at 1 h (male, Balb/c, oral, 300 mg/kg, 300 mg/kg p.o., zymosan model, Fu 2.4%, read-out: Blood concentration 1h post dose (free)): 677 ± 121 nM
- concentration at 1 h (male, Balb/c, oral, 300 mg/kg, 300 mg/kg p.o., zymosan model, mean n=8 ± s.e.m., read-out: Blood concentration 1h post dose (total)): 28200 nM
- concentration at 1 h (150 mg/kg, 150 mg/kg B.I.D., CAIA model, mean ± s.e.m., read-out: Blood concentration total, 1h post dose): 17300 nM
- concentration at 6 h (150 mg/kg, 150 mg/kg B.I.D., CAIA model, mean ± s.e.m., read-out: Blood concentration total, 6h post dose): 9970 nM
- concentration at 1 h (150 mg/kg, 150 mg/kg B.I.D., CAIA model, read-out: Blood concentration (free), 1h post dose): 415 ± 100 nM
- concentration at 6 h (150 mg/kg, 150 mg/kg B.I.D., CAIA model, read-out: Blood concentration (free), 6h post dose): 239 ± 101 nM
- concentration at 0.5 h (oral, 10 mg/kg, 10 mg/kg p.o., human TNF neutrophilia model, Fu 2.4%, read-out: Blood concentration 0.5h post dose (free)): 20 ± 4 nM
- concentration at 0.5 h (oral, 30 mg/kg, 30 mg/kg p.o., human TNF neutrophilia model, Fu 2.4%, read-out: Blood concentration 0.5h post dose (free)): 203 ± 59 nM
- concentration at 0.5 h (oral, 30 mg/kg, 30 mg/kg p.o., human TNF neutrophilia model, mean n=3 ± s.e.m., read-out: Blood concentration 0.5h post dose total): 8460 nM
